Laboratory results: patent US8088791B2, “Antibacterial agents” (Biots Scientific Management Pty Ltd, priority 2006, dated 2012)
≈ marks a conversion by molar mass, not a printed value.

Columns and labels:
[1] = system: Staphylococcus aureus ATCC29213; assay: Minimum Inhibitory Concentration (MIC) testing, broth microdilution, Staphylococcus aureus; type: cell-based; details: Staphylococcus aureus ATCC29213; read-out: Staphylococcus aureus MICs Activity
Summary of the method: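 Broth microdilution per NCCLS M7-A5 in Mueller Hinton broth, with compound in 1.6% DMSO and inoculum at OD 0.09 diluted 1:100. Plates incubated 16–20 h at 37°C. MIC is the lowest concentration with no visible growth; scored A ≤8, B 16–64, C >64 μg/ml.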

Bacillus subtilis 168CA = assay: Minimum Inhibitory Concentration (MIC) testing, broth microdilution, Bacillus subtilis; type: cell-based; details: Bacillus subtilis 168CA; read-out: Bacillus subtilis MICs Activity
Summary of the method: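 Broth microdilution followed NCCLS M7-A5, in rich broth such as Mueller Hinton, inoculum at OD 0.09 diluted 1:100, compounds in 1.6% DMSO before inoculum. After 16–20 h at 37 °C, MIC was the lowest concentration without visible growth. Score A: ≦8 μg/ml, B: 16–64 μg/ml, C: >64 μg/ml.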

Row | SMILES | MIC [1] | MIC (Bacillus subtilis 168CA)
1 | CC(C)c1ccc(-c2noc(COc3ccc(F)c(C(N)=O)c3F)n2)cc1 [Example 248, 2,6-Difluoro-3-[3-(4-isopropylphenyl)-1,2,4-oxadiazol-5-yl]methoxybenzenecarboxamide] | < 8 µg/mL | < 8 µg/mL
2 | CC(C)(C)c1ccc(-c2noc(COc3ccc(F)c(C(N)=O)c3F)n2)cc1 [Example 249, 3-(3-[4-(tert-Butyl)phenyl]-1,2,4-oxadiazol-5-ylmethoxy)-2,6-difluorobenzenecarboxamide] | < 8 µg/mL | < 8 µg/mL
3 | CCc1ccc(-c2noc(COc3ccc(F)c(C(N)=O)c3F)n2)cc1 [Example 250, 3-[3-(4-Ethylphenyl)-1,2,4-oxadiazol-5-yl]methoxy-2,6-difluorobenzenecarboxamide] | < 8 µg/mL | < 8 µg/mL
4 | Cl.NC(=O)c1c(F)ccc(OCc2nc(-c3ccc(N)cc3)no2)c1F [Example 251, 3-[3-(4-Aminophenyl)-1,2,4-oxadiazol-5-yl]methoxy-2,6-difluorobenzenecarboxamide hydrochloride salt] | 16 to 64 µg/mL | 16 to 64 µg/mL
5 | Cc1ccccc1-c1noc(COc2ccc(F)c(C(N)=O)c2F)n1 [Example 252, 2,6-Difluoro-3-[3-(2-methylphenyl)-1,2,4-oxadiazol-5-yl]methoxybenzenecarboxamide] | < 8 µg/mL | < 8 µg/mL
6 | COc1cccc(-c2noc(COc3ccc(F)c(C(N)=O)c3F)n2)c1 [Example 256, 2,6-Difluoro-3-[3-(3-methoxyphenyl)-1,2,4-oxadiazol-5-yl]methoxybenzenecarboxamide] | 16 to 64 µg/mL (≈ 44.3 to 177 µM) | < 8 µg/mL
7 | NC(=O)c1c(F)ccc(OCc2nc(-c3cccc(O)c3)no2)c1F [Example 257, 2,6-Difluoro-3-[3-(3-hydroxyphenyl)-1,2,4-oxadiazol-5-yl]methoxybenzenecarboxamide] | < 8 µg/mL | < 8 µg/mL
8 | NC(=O)c1c(F)ccc(OCc2nc(-c3c(Cl)cccc3Cl)no2)c1F [Example 260, 3-[3-(2,6-Dichlorophenyl)-1,2,4-oxadiazol-5-yl]methoxy-2,6-difluorobenzenecarboxamide] | < 8 µg/mL | < 8 µg/mL
9 | NC(=O)c1c(F)ccc(OCc2nc(-c3cccnc3)no2)c1F [Example 262, 2,6-Difluoro-3-[3-(3-pyridinyl)-1,2,4-oxadiazol-5-yl]methoxybenzenecarboxamide] | 16 to 64 µg/mL (≈ 48.2 to 193 µM) | 16 to 64 µg/mL (≈ 48.2 to 193 µM)
10 | Cc1ccc(OCc2noc(COc3ccc(F)c(C(N)=O)c3F)n2)cc1 [Example 263, 2,6-Difluoro-3-(3-[(4-methylphenoxy)methyl]-1,2,4-oxadiazol-5-ylmethoxy)benzenecarboxamide] | 16 to 64 µg/mL (≈ 42.6 to 171 µM) | < 8 µg/mL
11 | NC(=O)c1c(F)ccc(OCc2nc(Cc3ccc(Cl)cc3)no2)c1F [Example 265, 3-[3-(4-Chlorobenzyl)-1,2,4-oxadiazol-5-yl]methoxy-2,6-difluorobenzenecarboxamide] | 16 to 64 µg/mL (≈ 42.1 to 169 µM) | < 8 µg/mL
12 | NC(=O)c1c(F)ccc(OCc2nc(Cc3ccccc3)no2)c1F [Example 266, 3-[(3-Benzyl-1,2,4-oxadiazol-5-yl)methoxy]-2,6-difluorobenzenecarboxamide] | 16 to 64 µg/mL (≈ 46.3 to 185 µM) | 16 to 64 µg/mL (≈ 46.3 to 185 µM)
13 | NC(=O)c1cccc(OCc2nc(-c3ccc(Cl)cc3)no2)c1F [Example 267, 3-[3-(4-Chloro-phenyl)-[1,2,4]oxadiazol-5-ylmethoxy]-2-fluoro-benzamide] | < 8 µg/mL | < 8 µg/mL
14 | NC(=O)c1cc(OCc2nc(-c3ccc(Cl)cc3)no2)ccc1F [Example 268, 5-[3-(4-Chloro-phenyl)-[1,2,4]oxadiazol-5-ylmethoxy]-2-fluoro-benzamide] | 16 to 64 µg/mL (≈ 46 to 184 µM) | < 8 µg/mL
15 | NC(=O)c1c(Cl)ccc(OCc2nc(-c3ccc(Cl)cc3)no2)c1F [Example 269, 6-Chloro-3-[3-(4-chloro-phenyl)-[1,2,4]oxadiazol-5-ylmethoxy]-2-fluoro-benzamide] | < 8 µg/mL | < 8 µg/mL
16 | NC(=O)c1c(F)ccc(OCc2nc(-c3ccc(Cl)cc3)no2)c1Cl [Example 270, 2-Chloro-3-[3-(4-chloro-phenyl)-[1,2,4]oxadiazol-5-ylmethoxy]-6-fluoro-benzamide] | < 8 µg/mL | < 8 µg/mL

Further lines, results first:

Row | MIC [1] | MIC (Bacillus subtilis 168CA) | SMILES
17 | < 8 µg/mL | < 8 µg/mL | NC(=O)c1cc(OCc2nc(-c3ccc(Cl)cc3)cs2)ccc1F [Example 272, 5-[4-(4-Chloro-phenyl)-thiazol-2-ylmethoxy]-2-fluoro-benzamide]
18 | < 8 µg/mL | < 8 µg/mL | NC(=O)c1c(Cl)ccc(OCc2nc(-c3ccc(Cl)cc3)cs2)c1F [Example 273, 6-Chloro-3-[4-(4-chloro-phenyl)-thiazol-2-ylmethoxy]-2-fluoro-benzamide]
19 | < 8 µg/mL | < 8 µg/mL | NC(=O)c1c(F)ccc(OCc2nc(-c3ccc(Cl)cc3)cs2)c1Cl [Example 274, 2-Chloro-3-[4-(4-chloro-phenyl)-thiazol-2-ylmethoxy]-6-fluoro-benzamide]
20 | 16 to 64 µg/mL (≈ 46.3 to 185 µM) | 16 to 64 µg/mL (≈ 46.3 to 185 µM) | NC(=O)c1ccnc(OCc2nc(-c3ccc(Cl)cc3)cs2)c1 [Example 275, 2-[4-(4-Chloro-phenyl)-thiazol-2-ylmethoxy]-isonicotinamide]
21 | < 8 µg/mL | < 8 µg/mL | N#Cc1ccc(-c2csc(COc3ccc(F)c(C(N)=O)c3F)n2)cc1 [Example 276, 3-[4-(4-Cyano-phenyl)-thiazol-2-ylmethoxy]-2,6-difluoro-benzamide]
22 | < 8 µg/mL | < 8 µg/mL | COc1ccc(-c2nc(COc3ccc(F)c(C(N)=O)c3F)sc2-c2ccccc2O)cc1 [Example 277, 2,6-Difluoro-3-[5-(2-hydroxy-phenyl)-4-(4-methoxy-phenyl)-thiazol-2-ylmethoxy]-benzamide]
23 | < 8 µg/mL | < 8 µg/mL | COc1ccc(-c2nc(COc3ccc(F)c(C(N)=O)c3F)sc2-c2cccc(O)c2)cc1 [Example 278, 2,6-Difluoro-3-[5-(3-hydroxy-phenyl)-4-(4-methoxy-phenyl)-thiazol-2-ylmethoxy]-benzamide]
24 | < 8 µg/mL | < 8 µg/mL | COc1ccc(-c2nc(COc3ccc(F)c(C(N)=O)c3F)sc2-c2ccc(O)cc2)cc1 [Example 279, 2,6-Difluoro-3-[5-(4-hydroxy-phenyl)-4-(4-methoxy-phenyl)-thiazol-2-ylmethoxy]-benzamide]
25 | < 8 µg/mL | < 8 µg/mL | COc1ccc(-c2nc(COc3ccc(F)c(C(N)=O)c3F)sc2-c2ccccc2OC)cc1 [Example 280, 2,6-Difluoro-3-[5-(2-methoxy-phenyl)-4-(4-methoxy-phenyl)-thiazol-2-ylmethoxy]-benzamide]
26 | < 8 µg/mL | < 8 µg/mL | COc1ccc(-c2nc(COc3ccc(F)c(C(N)=O)c3F)sc2-c2cccc(OC)c2)cc1 [Example 281, 2,6-Difluoro-3-[5-(3-methoxy-phenyl)-4-(4-methoxy-phenyl)-thiazol-2-ylmethoxy]-benzamide]
27 | < 8 µg/mL | < 8 µg/mL | COc1ccc(-c2nc(COc3ccc(F)c(C(N)=O)c3F)sc2-c2ccccc2N)cc1 [Example 283, 2,6-Difluoro-3-[5-(2-amino-phenyl)-4-(4-methoxy-phenyl)-thiazol-2-ylmethoxy]-benzamide]
28 | < 8 µg/mL | < 8 µg/mL | COc1ccc(-c2nc(COc3ccc(F)c(C(N)=O)c3F)sc2-c2cccc(N)c2)cc1 [Example 284, 2,6-Difluoro-3-[5-(3-amino-phenyl)-4-(4-methoxy-phenyl)-thiazol-2-ylmethoxy]-benzamide]
